Experimental data from US8987195B2 (priority 2012, dated 2015).
pEC50, pIC50: −log10 of the molar value. Where two headings read alike, the source gives them in different places.

Legend:
[1] = target: HCV NS3/4A protease genotype 1b (Hepatitis C virus genotype 1b, UniProt P26663); test: HCV NS3/4A protease time-resolved fluorescence (TRF) assay, Ki against genotype 1b; format: biochemical; settings: for IC50: IC50 [gt-1b] (nM), NS3/4A genotype 1b, enzyme 0.2 nM
Outline: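 Enzyme was pre-incubated 30 min with inhibitor in HEPES pH 7.5 buffer (150 mM NaCl, 15% glycerol, 10 mM DTT). Reaction ran 2.5 h at room temperature with 25 nM europium TRF peptide substrate, read at ex 340/em 615 nm. Enzyme levels: 0.2 nM (1b), 0.4 nM (A156T), 0.025 nM (3a). Ki came from four-parameter IC50 via IC50=Ki(1+[S]/KM).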

HCV genotype 1b replicon = test: HCV replicon assay, genotype 1b replicon EC50; format: cell-based, Hepatitis C virus; settings: Hepatitis C virus, read-out: EC50 [gt-1b]
Outline: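 Replicon cells (Neo^r, some luciferase:Neo^r fusion); G418 removed at plating; compound dilution series, 24-48 h. Readout: RNA by 32P-probe hybridization/protection or TaqMan, normalized to cyclophilin A RNA, or luciferase. EC50 vs DMSO control, 4-parameter fit.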

SMILES	IC50 [1]	pEC50 (HCV genotype 1b replicon; genotype 1b replicon)	IC50 ([1]; K+ salt)	pEC50 (HCV genotype 1b replicon; genotype 1b replicon, K+ salt)	also measured
Cc1nc2ccccc2c2c1O[C@]1(CC2)C[C@H]2C(=O)N[C@]3(C(=O)NS(=O)(=O)C4(C)CC4)C[C@H]3/C=C\CCCCC[C@H](Nc3cccc(F)c3)C(=O)N2C1 [Example 345, (2R,6S,12Z,13aS,14aR,16aS)-6-[(3-fluorophenyl)amino]-5′-methyl-N-[(1-methylcyclopropyl)sulfonyl]-5,16-dioxo-1,1′,2′,6,7,8,9,10,11,13a,14,15,16,16a-tetradecahydrospiro[cyclopropa[e]pyrrolo[1,2-a][1,4]diazacyclopentadecine-2,3′-pyrano[2,3-c]quinoline]-14a(5H)-carboxamide]	0.428 nM	8.18	–	–	–
COc1ccc2nc(C(F)(F)F)c3c(c2c1)CC[C@]1(C[C@H]2C(=O)N[C@]4(C(=O)NS(=O)(=O)C5(C)CC5)C[C@H]4/C=C\CCCCC[C@H](NC(=O)OC(C)(C)C(F)(F)F)C(=O)N2C1)O3 [Example 348, 1,1,1-trifluoro-2-methylpropan-2-yl [(2R,6S,12Z,13aS,14aR,16aS)-9′-methoxy-14a-{[(1-methylcyclopropyl)sulfonyl]carbamoyl}-5,16-dioxo-5′-(trifluoromethyl)-1,1′,2′,5,6,7,8,9,10,11,13a,14,14a,15,16,16a-hexadecahydrospiro[cyclopropa[e]pyrrolo[1,2-a][1,4]diazacyclopentadecine-2,3′-pyrano[2,3-c]quinolin]-6-yl]carbamate]	–	–	0.046 nM	8.03	–
COc1ccc2nc(C)c3c(c2c1)CC[C@]1(C[C@H]2C(=O)N[C@]4(C(=O)NS(=O)(=O)C5(C)CC5)C[C@H]4/C=C\CCCCC[C@H](NC(=O)OCC4(C(F)(F)F)CC4)C(=O)N2C1)O3 [Example 349, [1-(trifluoromethyl)cyclopropyl]methyl [(2R,6S,12Z,13aS,14aR,16aS)-9′-methoxy-5′-methyl-14a-{[(1-methylcyclopropyl)sulfonyl]carbamoyl}-5,16-dioxo-1,1′,2′,5,6,7,8,9,10,11,13a,14,14a,15,16,16a-hexadecahydrospiro[cyclopropa[e]pyrrolo[1,2-a][1,4]diazacyclopentadecine-2,3′-pyrano[2,3-c]quinolin]-6-yl]carbamate]	–	–	0.012 nM	8.34	–
Cc1ccnc(N[C@H]2CCCCC/C=C\[C@@H]3C[C@@]3(C(=O)NS(=O)(=O)C3(C)CC3)NC(=O)[C@@H]3C[C@]4(CCc5c(c(C)nc6ccccc56)O4)CN3C2=O)c1 [Example 350, (2R,6S,12Z,13aS,14aR,16aS)-5′-methyl-N-[(1-methylcyclopropyl)sulfonyl]-6-[(4-methylpyridin-2-yl)amino]-5,16-dioxo-1,1′,2′,6,7,8,9,10,11,13a,14,15,16,16a-tetradecahydrospiro[cyclopropa[e]pyrrolo[1,2-a][1,4]diazacyclopentadecine-2,3′-pyrano[2,3-c]quinoline]-14a(5H)-carboxamide]	0.035 nM	8.55	–	–	–
COc1ccc2nc(C(F)(F)F)c3c(c2c1)CC[C@]1(C[C@H]2C(=O)N[C@]4(C(=O)NS(=O)(=O)C5(C)CC5)C[C@H]4/C=C\CCCCC[C@H](NC(=O)O[C@@H](C)C(C)C)C(=O)N2C1)O3 [Example 351, (2S)-3-methylbutan-2-yl [(2R,6S,12Z,13aS,14aR,16aS)-9′-methoxy-14a-{[(1-methylcyclopropyl)sulfonyl]carbamoyl}-5,16-dioxo-5′-(trifluoromethyl)-1,1′,2′,5,6,7,8,9,10,11,13a,14,14a,15,16,16a-hexadecahydrospiro[cyclopropa[e]pyrrolo[1,2-a][1,4]diazacyclopentadecine-2,3′-pyrano[2,3-c]quinolin]-6-yl]carbamate]	–	–	0.029 nM	8.66	–
COc1ccc2nc(C(C)C)c3c(c2c1)[C@H](F)C[C@]1(C[C@H]2C(=O)N[C@]4(C(=O)NS(=O)(=O)C5(C)CC5)C[C@H]4/C=C\CCCCC[C@H](NC(=O)OC(C)(C)C(F)(F)F)C(=O)N2C1)O3 [Example 352, 1,1,1-trifluoro-2-methylpropan-2-yl [(1′R,2S,6S,12Z,13aS,14aR,16aS)-1′-fluoro-9′-methoxy-14a-{[(1-methylcyclopropyl)sulfonyl]carbamoyl}-5,16-dioxo-5′-(propan-2-yl)-1,1′,2′,5,6,7,8,9,10,11,13a,14,14a,15,16,16a-hexadecahydrospiro[cyclopropa[e]pyrrolo[1,2-a][1,4]diazacyclopentadecine-2,3′-pyrano[2,3-c]quinolin]-6-yl]carbamate]	–	–	0.042 nM	8.84	–
Cc1nc2ccccc2c2c1O[C@]1(CC2)C[C@H]2C(=O)N[C@]3(C(=O)NS(=O)(=O)C4(C)CC4)C[C@H]3/C=C\CCCCC[C@H](Nc3ccccn3)C(=O)N2C1 [Example 353, (2R,6S,12Z,13aS,14aR,16aS)-5′-methyl-N-[(1-methylcyclopropyl)sulfonyl]-5,16-dioxo-6-(pyridin-2-ylamino)-1,1′,2′,6,7,8,9,10,11,13a,14,15,16,16a-tetradecahydrospiro[cyclopropa[e]pyrrolo[1,2-a][1,4]diazacyclopentadecine-2,3′-pyrano[2,3-c]quinoline]-14a(5R)-carboxamide]	0.111 nM	7.40	–	–	–
COc1ccc2nc(C)c3c(c2c1)[C@@H](F)C[C@]1(C[C@H]2C(=O)N[C@]4(C(=O)NS(=O)(=O)C5(C)CC5)C[C@H]4/C=C\CCCCC[C@H](NC(=O)OC(C)(C)C)C(=O)N2C1)O3 [Example 354, tert-butyl [(1′S,2S,6S,12Z,13aS,14aR,16aS)-1′-fluoro-9′-methoxy-5′-methyl-14a-{[(1-methylcyclopropyl)sulfonyl]carbamoyl}-5,16-dioxo-1,1′,2′,5,6,7,8,9,10,11,13a,14,14a,15,16,16a-hexadecahydrospiro[cyclopropa[e]pyrrolo[1,2-a][1,4]diazacyclopentadecine-2,3′-pyrano[2,3-c]quinolin]-6-yl]carbamate]	0.169 nM	6.99	–	–	–
COc1ccc2nc(C)c3c(c2c1)[C@H](F)C[C@]1(C[C@H]2C(=O)N[C@]4(C(=O)NS(=O)(=O)C5(C)CC5)C[C@H]4/C=C\CCCCC[C@H](NC(=O)OC(C)(C)C(F)(F)F)C(=O)N2C1)O3 [Example 355, 1,1,1-trifluoro-2-methylpropan-2-yl [(1′R,2S,6S,12Z,13aS,14aR,16aS)-1′-fluoro-9′-methoxy-5′-methyl-14a-{[(1-methylcyclopropyl)sulfonyl]carbamoyl}-5,16-dioxo-1,1′,2′,5,6,7,8,9,10,11,13a,14,14a,15,16,16a-hexadecahydrospiro[cyclopropa[e]pyrrolo[1,2-a][1,4]diazacyclopentadecine-2,3′-pyrano[2,3-c]quinolin]-6-yl]carbamate]	–	–	0.02 nM	8.42	–
COc1ccc2nc(C)c3c(c2c1)[C@H](F)C[C@]1(C[C@H]2C(=O)N[C@]4(C(=O)NS(=O)(=O)C5(C)CC5)C[C@H]4/C=C\CCCCC[C@H](NC(=O)O[C@H](C)C(C)C)C(=O)N2C1)O3 [Example 356, (2R)-3-methylbutan-2-yl [(1′R,2S,6S,12Z,13aS,14aR,16aS)-1′-fluoro-9′-methoxy-5′-methyl-14a-{[(1-methylcyclopropyl)sulfonyl]carbamoyl}-5,16-dioxo-1,1′,2′,5,6,7,8,9,10,11,13a,14,14a,15,16,16a-hexadecahydrospiro[cyclopropa[e]pyrrolo[1,2-a][1,4]diazacyclopentadecine-2,3′-pyrano[2,3-c]quinolin]-6-yl]carbamate]	–	–	0.012 nM	8.43	–
COc1ccc2nc(C)c3c(c2c1)[C@H](F)C[C@]1(C[C@H]2C(=O)N[C@]4(C(=O)NS(=O)(=O)C5(C)CC5)C[C@H]4/C=C\CCCCC[C@H](NC(=O)O[C@@H](C)C(C)C)C(=O)N2C1)O3 [Example 357, (2S)-3-methylbutan-2-yl [(1′R,2S,6S,12Z,13aS,14aR,16aS)-1′-fluoro-9′-methoxy-5′-methyl-14a-{[(1-methylcyclopropyl)sulfonyl]carbamoyl}-5,16-dioxo-1,1′,2′,5,6,7,8,9,10,11,13a,14,14a,15,16,16a-hexadecahydrospiro[cyclopropa[e]pyrrolo[1,2-a][1,4]diazacyclopentadecine-2,3′-pyrano[2,3-c]quinolin]-6-yl]carbamate]	–	–	0.01 nM	8.54	–
COc1ccc2nc(C)c3c(c2c1)[C@H](F)C[C@]1(C[C@H]2C(=O)N[C@]4(C(=O)NS(=O)(=O)C5(C)CC5)C[C@H]4/C=C\CCCCC[C@H](NC(=O)O[C@@H](C)C(C)C)C(=O)N2C1)O3 [Example 358, (2S)-3-methylbutan-2-yl [(1′R,2S,6S,12Z,13aS,14aR,16aS)-1′-fluoro-9′-methoxy-5′-methyl-14a-{[(1-methylcyclopropyl)sulfonyl]carbamoyl}-5,16-dioxo-1,1′,2′,5,6,7,8,9,10,11,13a,14,14a,15,16,16a-hexadecahydrospiro[cyclopropa[e]pyrrolo[1,2-a][1,4]diazacyclopentadecine-2,3′-pyrano[2,3-c]quinolin]-6-yl]carbamate]	–	–	–	–	pIC50 ([1]; IC50 [gt-1b], NS3/4A protease TRF assay, genotype 1b enzyme 0.2 nM, K+ salt): 9.76; pEC50 (HCV genotype 1b replicon; HCV replicon, genotype 1b, K+ salt): 7.37
